Measurements from PubChem BioAssay (NCI).
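48-hour exposure; five concentrations; linearly interpolated endpoints. GI50 marks 50% less growth. TGI marks complete inhibition of growth.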

Columns and labels:
Test in all cases: NCI tumour cell line growth inhibition, 48 h
SK-OV-3 ovarian = tested on: SK-OV-3 ovarian
SK-MEL-2 melanoma = tested on: SK-MEL-2 melanoma
RPMI-8226 leukemia = tested on: RPMI-8226 leukemia
MOLT-4 leukemia = tested on: MOLT-4 leukemia
SNB-75 CNS = tested on: SNB-75 CNS
MDA-MB-435 = tested on: MDA-MB-435
SF-295 CNS = tested on: SF-295 CNS
SK-MEL-28 melanoma = tested on: SK-MEL-28 melanoma
M14 melanoma = tested on: M14 melanoma
SNB-19 CNS = tested on: SNB-19 CNS
MDA-MB-468 breast = tested on: MDA-MB-468 breast
K-562 leukemia = tested on: K-562 leukemia
HCT-116 colon = tested on: HCT-116 colon
T-47D breast = tested on: T-47D breast
HCT-15 colon = tested on: HCT-15 colon
A498 renal = tested on: A498 renal
KM12 colon = tested on: KM12 colon
HS 578T breast = tested on: HS 578T breast
SF-268 CNS = tested on: SF-268 CNS
NCI-H23 lung = tested on: NCI-H23 lung
MDA-MB-231 breast = tested on: MDA-MB-231 breast
OVCAR-8 ovarian = tested on: OVCAR-8 ovarian
SW-620 colon = tested on: SW-620 colon
SK-MEL-5 melanoma = tested on: SK-MEL-5 melanoma
OVCAR-3 ovarian = tested on: OVCAR-3 ovarian
CAKI-1 renal = tested on: CAKI-1 renal
NCI-H460 lung = tested on: NCI-H460 lung
OVCAR-4 ovarian = tested on: OVCAR-4 ovarian
COLO 205 colon = tested on: COLO 205 colon
SF-539 CNS = tested on: SF-539 CNS
LOX IMVI melanoma = tested on: LOX IMVI melanoma
NCI-H226 lung = tested on: NCI-H226 lung
CCRF-CEM leukemia = tested on: CCRF-CEM leukemia
PC-3 prostate = tested on: PC-3 prostate
NCI/ADR-RES ovarian = tested on: NCI/ADR-RES ovarian
UO-31 renal = tested on: UO-31 renal
BT-549 breast = tested on: BT-549 breast
NCI-H522 lung = tested on: NCI-H522 lung
EKVX NSCLC = tested on: EKVX NSCLC
ACHN renal = tested on: ACHN renal
U251 CNS = tested on: U251 CNS
UACC-62 melanoma = tested on: UACC-62 melanoma
HT29 colon = tested on: HT29 colon
HCC-2998 colon = tested on: HCC-2998 colon
MCF7 breast = tested on: MCF7 breast
SR leukemia = tested on: SR leukemia
RXF 393 renal = tested on: RXF 393 renal
786-0 renal = tested on: 786-0 renal
MALME-3M melanoma = tested on: MALME-3M melanoma
UACC-257 melanoma = tested on: UACC-257 melanoma
IGROV1 ovarian = tested on: IGROV1 ovarian
A549 NSCLC = tested on: A549 NSCLC
HOP-62 NSCLC = tested on: HOP-62 NSCLC
DU-145 prostate = tested on: DU-145 prostate
HOP-92 NSCLC = tested on: HOP-92 NSCLC
SN12C renal = tested on: SN12C renal
HL-60(TB) leukemia = tested on: HL-60(TB) leukemia
TK-10 renal = tested on: TK-10 renal
OVCAR-5 ovarian = tested on: OVCAR-5 ovarian

CN1C(=O)N(C)C2SC(N/N=C/c3cccs3)=NC21 (stereo not drawn)
GI50 (SK-OV-3 ovarian): 7.74 µM | TGI (SK-OV-3 ovarian): 92 µM | GI50 (SK-MEL-2 melanoma): 2500 nM | TGI (SK-MEL-2 melanoma): 7.27 µM | GI50 (RPMI-8226 leukemia): 9.1 µM | TGI (RPMI-8226 leukemia): > 100 µM | GI50 (MOLT-4 leukemia): 4.26 µM | TGI (MOLT-4 leukemia): > 100 µM | GI50 (SNB-75 CNS): 1660 nM | TGI (SNB-75 CNS): 7.61 µM | GI50 (MDA-MB-435): 1580 nM | TGI (MDA-MB-435): 4.18 µM | GI50 (SF-295 CNS): 3.92 µM | TGI (SF-295 CNS): > 100 µM | GI50 (SK-MEL-28 melanoma): 6.38 µM | TGI (SK-MEL-28 melanoma): > 100 µM | GI50 (M14 melanoma): 3.32 µM | TGI (M14 melanoma): > 100 µM | GI50 (SNB-19 CNS): 11.4 µM | TGI (SNB-19 CNS): > 100 µM | GI50 (MDA-MB-468 breast): 1890 nM | TGI (MDA-MB-468 breast): 5.47 µM | GI50 (K-562 leukemia): 2960 nM | TGI (K-562 leukemia): > 100 µM | GI50 (HCT-116 colon): 3.98 µM | TGI (HCT-116 colon): > 100 µM | GI50 (T-47D breast): 4.56 µM | TGI (T-47D breast): > 100 µM | GI50 (HCT-15 colon): 3.92 µM | TGI (HCT-15 colon): > 100 µM | GI50 (A498 renal): 22.7 µM | TGI (A498 renal): > 100 µM | GI50 (KM12 colon): 4.97 µM | TGI (KM12 colon): > 100 µM | GI50 (HS 578T breast): 2630 nM | TGI (HS 578T breast): 9.74 µM | GI50 (SF-268 CNS): 14.3 µM | TGI (SF-268 CNS): > 100 µM | GI50 (NCI-H23 lung): 17.7 µM | TGI (NCI-H23 lung): > 100 µM | GI50 (MDA-MB-231 breast): 4.89 µM | TGI (MDA-MB-231 breast): 88.3 µM | GI50 (OVCAR-8 ovarian): 14.5 µM | TGI (OVCAR-8 ovarian): > 100 µM | GI50 (SW-620 colon): 3.68 µM | TGI (SW-620 colon): > 100 µM | GI50 (SK-MEL-5 melanoma): 2870 nM | TGI (SK-MEL-5 melanoma): > 100 µM | GI50 (OVCAR-3 ovarian): 3.43 µM | TGI (OVCAR-3 ovarian): 30.8 µM | GI50 (CAKI-1 renal): 4.12 µM | TGI (CAKI-1 renal): > 100 µM | GI50 (NCI-H460 lung): 3.98 µM | TGI (NCI-H460 lung): > 100 µM | GI50 (OVCAR-4 ovarian): > 100 µM | TGI (OVCAR-4 ovarian): > 100 µM | GI50 (COLO 205 colon): 4.47 µM | TGI (COLO 205 colon): 24.1 µM | GI50 (SF-539 CNS): 3.42 µM | TGI (SF-539 CNS): 16.9 µM | GI50 (LOX IMVI melanoma): 5.26 µM | TGI (LOX IMVI melanoma): > 100 µM | GI50 (NCI-H226 lung): 7.53 µM | TGI (NCI-H226 lung): > 100 µM | GI50 (CCRF-CEM leukemia): 3.96 µM | TGI (CCRF-CEM leukemia): > 100 µM | GI50 (PC-3 prostate): 6.77 µM | TGI (PC-3 prostate): > 100 µM | GI50 (NCI/ADR-RES ovarian): 3.91 µM | TGI (NCI/ADR-RES ovarian): 38.2 µM | GI50 (UO-31 renal): 9.9 µM | TGI (UO-31 renal): > 100 µM | GI50 (BT-549 breast): 3.61 µM | TGI (BT-549 breast): > 100 µM | GI50 (NCI-H522 lung): 2740 nM | TGI (NCI-H522 lung): 10.4 µM | GI50 (EKVX NSCLC): 7.93 µM | TGI (EKVX NSCLC): > 100 µM | GI50 (ACHN renal): 12 µM | TGI (ACHN renal): > 100 µM | GI50 (U251 CNS): 4.46 µM | TGI (U251 CNS): > 100 µM | GI50 (UACC-62 melanoma): 3.69 µM | TGI (UACC-62 melanoma): > 100 µM | GI50 (HT29 colon): 3.03 µM | TGI (HT29 colon): 11.5 µM | GI50 (HCC-2998 colon): 8.21 µM | TGI (HCC-2998 colon): 71.9 µM | GI50 (MCF7 breast): 3.98 µM | TGI (MCF7 breast): > 100 µM | GI50 (SR leukemia): 2470 nM | TGI (SR leukemia): > 100 µM | GI50 (RXF 393 renal): 2090 nM | TGI (RXF 393 renal): 17.6 µM | GI50 (786-0 renal): 14.3 µM | TGI (786-0 renal): > 100 µM | GI50 (MALME-3M melanoma): 3.83 µM | TGI (MALME-3M melanoma): > 100 µM | GI50 (UACC-257 melanoma): > 100 µM | TGI (UACC-257 melanoma): > 100 µM | GI50 (IGROV1 ovarian): 5.58 µM | TGI (IGROV1 ovarian): > 100 µM | GI50 (A549 NSCLC): 9.64 µM | TGI (A549 NSCLC): > 100 µM | GI50 (HOP-62 NSCLC): 7.45 µM | TGI (HOP-62 NSCLC): > 100 µM | GI50 (DU-145 prostate): 30 µM | TGI (DU-145 prostate): > 100 µM | GI50 (HOP-92 NSCLC): > 100 µM | TGI (HOP-92 NSCLC): > 100 µM | GI50 (SN12C renal): > 100 µM | TGI (SN12C renal): > 100 µM | GI50 (HL-60(TB) leukemia): 2390 nM | TGI (HL-60(TB) leukemia): 7.36 µM | GI50 (TK-10 renal): > 100 µM | TGI (TK-10 renal): > 100 µM | GI50 (OVCAR-5 ovarian): 6.45 µM | TGI (OVCAR-5 ovarian): 86.2 µM
